Key:
Rat Plasma VAP-1 = biological target: T1, Rat Plasma VAP-1 (Rattus norvegicus, UniProt O08590); experiment: (Ex vivo) rat plasma VAP-1 inhibition test after oral administration of the compound; type: in vivo; conditions: 3 hours after oral administration, SD male rats, read-out: inhibition ratio (plasma VAP-1, ex vivo)
T1 construct: from tissue; host or cells: plasma of SD male rats (7-12 weeks old) after oral dosing
T1 sequence (O08590 28-763 limits assumed): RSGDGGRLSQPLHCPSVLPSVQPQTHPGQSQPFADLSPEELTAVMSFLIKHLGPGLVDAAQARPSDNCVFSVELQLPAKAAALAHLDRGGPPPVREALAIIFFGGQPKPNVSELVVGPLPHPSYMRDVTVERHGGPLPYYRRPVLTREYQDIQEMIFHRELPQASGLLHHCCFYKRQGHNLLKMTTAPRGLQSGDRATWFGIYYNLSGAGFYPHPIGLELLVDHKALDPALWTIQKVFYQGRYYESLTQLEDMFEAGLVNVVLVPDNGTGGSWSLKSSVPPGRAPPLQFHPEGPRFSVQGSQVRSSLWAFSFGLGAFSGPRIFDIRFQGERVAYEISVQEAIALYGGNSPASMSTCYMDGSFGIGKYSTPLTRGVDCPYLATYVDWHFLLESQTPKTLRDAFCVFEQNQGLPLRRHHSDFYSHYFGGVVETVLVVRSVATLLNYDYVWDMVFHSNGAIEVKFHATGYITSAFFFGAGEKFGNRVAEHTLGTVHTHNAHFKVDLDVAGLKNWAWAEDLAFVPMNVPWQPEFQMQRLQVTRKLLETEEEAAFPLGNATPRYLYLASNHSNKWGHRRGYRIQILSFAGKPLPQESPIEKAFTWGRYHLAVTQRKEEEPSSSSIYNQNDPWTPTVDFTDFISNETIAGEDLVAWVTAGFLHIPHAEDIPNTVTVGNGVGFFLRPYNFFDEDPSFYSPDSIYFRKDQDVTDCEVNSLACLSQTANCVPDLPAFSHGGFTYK
How it was run: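 Male SD rats, 7–12 weeks, non-fasted, dosed orally at 0.3–10 mg/kg; jugular blood taken predose and 3, 8 and 24 h after dosing. Plasma incubated with 2.5 μM 14C-benzylamine for 3 h at 37 °C; extracted product counted by scintillation. Inhibition expressed relative to each animal's predose plasma activity.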

[1] = test system: Human normal glomerular microvascular endothelial cells; type: cell-based; conditions: 2 days, 100 nM
Description: The Cytotoxicity Inhibition Test in Human Normal Glomerular Microvascular Endothelial Cells
(§1) Human normal glomerular microvascular endothelial cells were plated at 6000 cells/well in a collagen-coated 96-well culture plate. After one day of culture, the medium at each well was completely removed by aspiration and replaced with 50 μL of the compound solution diluted with the basal medium. The basal medium containing 0.1% DMSO was added to control wells. Following, the plate was incubated in CO2 incubator for 30 minutes. Fifty microliter of 2 mM methylamine diluted with the basal medium was added (final concentration 1 mM) to each negative control well (0% inhibition) as well as the compound-containing well, and 50 μL of the basal medium was added to each positive control well (100% inhibition). The plate was incubated in CO2 incubator for 2 days. Ten microliter of CCK-8 was added to each well and the mixtures were incubated in a plate incubator at 37° C. for approximately 2 hours after stirring with a plate shaker. The absorbance of the mixtures at 450 nm was measured with a multiplate reader. The cytotoxicity inhibition ratio of the compound was calculated from the following equation. Inhibition ratio={[Average absorbance of the compound-containing wells]−[Average absorbance of negative control wells]}/{[Average absorbance of positive control wells]−[Average absorbance of negative control wells]}×100

in vivo = experiment: in vivo; design: species or system SD rats; conditions: SD, rat, po, 3 mg/kg
Description: Rat Pharmacokinetic (PK) Study (Concentration of Compound in Plasma after Oral Administration)
Seven to eight week old SD rats (weighing 180 to 250 g) were orally administered with a suspension of the compound in 0.5 W/V % methylcellulose 400 solution. Under anesthesia, the blood was collected from the jugular vein in EDTA tubes at 0.25, 0.5, 1, 2, 4, 6, 8 and 24 hours after the administration of the compound. The blood was centrifuged at 4° C. and 6000 g for 3 minutes to give plasma. Acetonitrile was added to the plasma, and the mixture was stirred with a shaker at 750 rpm for 3 minutes and was deproteinized by centrifugation at 3700 rpm for 2 minutes. Thus, the obtained sample was analyzed by LC/MS under the following conditions.
The concentration of the compound in the plasma at each blood sampling time was determined by an internal standard method, and AUC all (Area Under Curve) was calculated by a trapezoidal method.
The following LC and MS systems were used for measurement.
LC: CBM 30 series manufactured by Shimadzu Corporation
Column: Phenomenex Kinetex C18 (50×2.1 mm, 2.6 μm)
Column temperature: 40° C.
Mobile phase A: 0.1% aqueous formic acid solution, mobile phase B: 0.1% formic acid,
50% acetonitrile/methanol mixture
MS: 3200 manufactured by SCIEX

[2] = test system: Human normal hepatic sinusoid-like microvascular endothelial cells; type: cell-based; conditions: 2 days, 300 nM
Description: The Cytotoxicity Inhibition Test in Human Normal Hepatic Sinusoid-Like Microvascular Endothelial Cells
as §1, with “hepatic sinusoid-like” for “glomerular”

Human VAP-1 enzyme = biological target: T2, Human VAP-1 enzyme (Homo sapiens, UniProt Q16853); experiment: Human VAP-1 enzyme inhibition test; type: biochemical; conditions: 1 h; compound 30 nM; 14C-benzylamine 100 μM; read-out: inhibition ratio (human VAP-1 enzyme)
T2 construct: purchased R&D Systems, Inc
T2 sequence (Q16853 1-763): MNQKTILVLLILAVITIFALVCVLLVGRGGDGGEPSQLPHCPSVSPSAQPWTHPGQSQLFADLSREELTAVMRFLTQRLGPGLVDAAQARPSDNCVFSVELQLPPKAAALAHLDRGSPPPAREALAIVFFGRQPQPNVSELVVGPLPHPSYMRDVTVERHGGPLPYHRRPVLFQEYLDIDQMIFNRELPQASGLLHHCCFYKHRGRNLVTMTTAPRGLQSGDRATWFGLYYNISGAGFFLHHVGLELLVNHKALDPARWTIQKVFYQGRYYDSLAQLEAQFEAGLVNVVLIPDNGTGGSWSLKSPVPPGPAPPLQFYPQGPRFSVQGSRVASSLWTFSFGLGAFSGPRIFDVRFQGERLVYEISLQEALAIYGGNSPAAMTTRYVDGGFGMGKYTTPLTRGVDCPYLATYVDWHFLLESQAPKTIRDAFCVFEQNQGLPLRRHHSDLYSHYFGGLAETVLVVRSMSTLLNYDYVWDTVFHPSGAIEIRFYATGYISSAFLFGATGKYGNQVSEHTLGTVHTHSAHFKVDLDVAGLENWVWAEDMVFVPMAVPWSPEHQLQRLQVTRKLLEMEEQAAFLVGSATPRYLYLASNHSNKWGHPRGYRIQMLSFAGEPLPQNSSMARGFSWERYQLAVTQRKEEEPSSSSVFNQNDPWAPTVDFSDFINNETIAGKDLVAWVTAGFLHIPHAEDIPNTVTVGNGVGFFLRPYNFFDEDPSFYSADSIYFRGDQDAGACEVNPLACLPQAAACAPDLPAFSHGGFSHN
How it was run: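 Recombinant human VAP-1 pre-incubated 20 min at room temperature with compound in DMSO, then reacted with 14C-benzylamine (100 μM final) 1 h at 37 °C. Citric acid stop; oxidized product extracted into toluene/ethyl acetate and counted by liquid scintillation. Inhibition ratio relative to DMSO-only activity.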

With `CON=C1CN(c2ncc(-c3cccc(COC(=O)NC(=N)N)c3F)cn2)C1` [Example 1, 2-Fluoro-3-{2-[3-(methoxyimino)azetidin-1-yl]pyrimidin-5-yl}benzyl carbamimidoylcarbamate] as the compound, how does the inhibition in vivo at 0.3 mg/kg (Rat Plasma VAP-1) read?
The inhibition in vivo at 0.3 mg/kg was no less than 50%.

And the cytotoxicity inhibition ratio [1]?
The cytotoxicity inhibition ratio was no less than 50%.

And the AUC (in vivo)?
The AUC was no less than 1000 ng·h/mL.

What about the cytotoxicity inhibition ratio [2] of the same compound?
Its cytotoxicity inhibition ratio is no less than 50%.

With `[2H]C([2H])([2H])ON=C1CN(c2ncc(-c3cccc(COC(=O)NC(=N)N)c3F)cn2)C1` [Example 3, 2-Fluoro-3-(2-{3-[(methoxy-d3)imino]azetidin-1-yl}pyrimidin-5-yl)benzyl carbamimidoylcarbamate] as the compound, how does the inhibition in vivo at 0.3 mg/kg (Rat Plasma VAP-1) read?
Its inhibition in vivo at 0.3 mg/kg is no less than 50%.

What about the cytotoxicity inhibition ratio [1] of the same compound?
Its cytotoxicity inhibition ratio is no less than 50%.

What about the inhibition at 0.03 µM (Human VAP-1 enzyme) of the same compound?
The inhibition at 0.03 µM was no less than 50%.

What about the cytotoxicity inhibition ratio [2] of the same compound?
The cytotoxicity inhibition ratio was no less than 50%.

Which results are given for `CC(=O)OC1CC(ON=C2CN(c3ncc(-c4cccc(COC(=O)NC(=N)N)c4F)cn3)C2)C1` (stereo not drawn) [Example 133, 3-[({1-[5-(3-{[(Carbamimidoylcarbamoyl)oxy]methyl}-2-fluorophenyl)pyrimidin-2-yl]azetidin-3-ylidene}amino)oxy]cyclobutyl acetate]?
inhibition in vivo at 0.3 mg/kg (Rat Plasma VAP-1): ≥ 50%; cytotoxicity inhibition ratio [1]: ≥ 50%; inhibition at 0.03 µM (Human VAP-1 enzyme): ≥ 50%; cytotoxicity inhibition ratio [2]: ≥ 50%

With `N=C(N)NC(=O)OCc1cccc(-c2cnc(N3CC(=NOC4CC(O)C4)C3)nc2)c1F` (stereo not drawn) [Example 134, 2-Fluoro-3-(2-{3-[(3-hydroxycyclobutoxy)imino]azetidin-1-yl}pyrimidin-5-yl)benzyl carbamimidoylcarbamate] as the compound, how does the inhibition in vivo at 0.3 mg/kg (Rat Plasma VAP-1) read?
Its inhibition in vivo at 0.3 mg/kg is no less than 50%.

And the cytotoxicity inhibition ratio [1]?
The cytotoxicity inhibition ratio was no less than 50%.

And the inhibition at 0.03 µM (Human VAP-1 enzyme)?
The inhibition at 0.03 µM was no less than 50%.

And the cytotoxicity inhibition ratio [2]?
The cytotoxicity inhibition ratio was no less than 50%.

With `CS(=O)(=O)N1CC(ON=C2CN(c3ncc(-c4cccc(COC(=O)NC(=N)N)c4F)cn3)C2)C1` [Example 141, 2-Fluoro-3-{2-[3-({[1-(methylsulfonyl)azetidin-3-yl]oxy}imino)azetidin-1-yl]pyrimidin-5-yl}benzyl carbamimidoylcarbamate] as the compound, how does the inhibition in vivo at 0.3 mg/kg (Rat Plasma VAP-1) read?
Its inhibition in vivo at 0.3 mg/kg is no less than 50%.

What about the cytotoxicity inhibition ratio [1] of the same compound?
The cytotoxicity inhibition ratio was no less than 50%.

And the inhibition at 0.03 µM (Human VAP-1 enzyme)?
The inhibition at 0.03 µM was no less than 50%.

What about the cytotoxicity inhibition ratio [2] of the same compound?
The cytotoxicity inhibition ratio was no less than 50%.

With `N=C(N)NC(=O)OCc1cccc(-c2cnc(N3CC(=NOC4COC4)C3)nc2)c1F` [Example 144, 2-Fluoro-3-(2-{3-[(oxetan-3-yloxy)imino]azetidin-1-yl}pyrimidin-5-yl)benzyl carbamimidoylcarbamate] as the compound, how does the inhibition in vivo at 0.3 mg/kg (Rat Plasma VAP-1) read?
The inhibition in vivo at 0.3 mg/kg was no less than 50%.

What about the cytotoxicity inhibition ratio [1] of the same compound?
The cytotoxicity inhibition ratio was no less than 50%.

And the inhibition at 0.03 µM (Human VAP-1 enzyme)?
The inhibition at 0.03 µM was no less than 50%.

And the cytotoxicity inhibition ratio [2]?
The cytotoxicity inhibition ratio was no less than 50%.
